# Test system: Human umbilical-vein endothelial cells (HUVEC)
# Experiment: Anti-angiogenic activity in Tube Formation Assay (collagen tube, 1st Assay and 2nd Assay)
# Type: cell-based
# Settings: for inhibition at 1 µM / inhibition at 10 µM / inhibition at 1 µg/mL / inhibition at 10 µg/mL / inhibition at 30 µg/mL: Homo sapiens, HUVEC; for inhibition at 1 µM / inhibition at 10 µM: positive control; for inhibition at 10 µg/mL: 10 μg/ml; for inhibition at 30 µg/mL: 30 μg/ml
# Experimental: Anti-angiogenic activity: collagen tube
# Human umbilical-vein endothelial cells (HUVEC; Kurabo Industries, Ltd., Osaka, Japan) were cultured with M-199 medium (Gibco, Gaithersburg, Md.) with […], bFGF (15 ng/mL; PeproTech EC, Ltd., Princeton, N.J.) and epidermal growth factor (EGF) (15 ng/mL; Upstate Biotechnology Inc., Lake Placid, N.Y.) until they become confluent. All experiments were performed using cells that were passaged at least five times. Eight volumes of type-I collagen solution (Nitta Gelatin Inc., Osaka, Japan)were mixed with one volume of 10X M-199 medium and one volume of reconstruction buffer (0.5 N NaOH, 200 mM HEPES and 260 mM NaHCO3).
# Collagen gel (300 μL/well) was placed in 24-well culture plates (NUNC) and incubated for 1.5 hours. HUVEC (1.4×10^5 /0.5 mL) were seeded in the collagen-coated plates and cultured for 2 hours at 37° C. Fifty microliters of sample were added. The collagen gel was replaced (300 μL/well), and the mixture was cultured for 1.5 hours. Three hundred fifty microliters of M-199 medium with […], 30 ng/mL basic fibroblast growth factor (bFGF) were added, and the mixture was cultured for 20 hours. One field per well was photographed with a phase-contrast microscope, and the length of the tube structures were measured on a Macintosh computer using the public domain NIH Image program (see Table 1 for results). Erbstatin was used as a positive control for inhibition of angiogenesis.
# [1] = 1st Assay, 1 μg/ml, n.e.: no effect, over 100% = more inhibition than in control cultures without bFGF
# [2] = 1st Assay, over 100% = more inhibition than in control cultures without bFGF
# [3] = 2nd Assay, over 100% = more inhibition than in control cultures without bFGF
SMILES,inhibition at 1 µM (1st Assay) [%],inhibition at 10 µM (1st Assay) [%],inhibition at 1 µM (2nd Assay) [%],inhibition at 10 µM (2nd Assay) [%],inhibition at 1 µg/mL [1] [%],inhibition at 10 µg/mL [2] [%],inhibition at 30 µg/mL [2] [%],"inhibition at 1 µg/mL (2nd Assay, 1 μg/ml, over 100% = more inhibition than in control cultures without bFGF) [%]",inhibition at 10 µg/mL [3] [%],inhibition at 30 µg/mL [3] [%],% of inhibition (tube formation) [1]
"O=CN/C=C/c1cc(O)ccc1O [Erbstatin, reference compound]",7.6,118,6.7,108,,,,,,,
CC1=C(C)C2=CC(=O)c3c(c(O)c4oc(C)cc4c3O)C2(C)CC1 (stereo not drawn) [Formula I-A fraction],,,,,115,119,119,108,108,107,
"CC1=C(C)C2=CC(=O)c3c(c(O)c4occ(C)c4c3O)C2(C)CC1 (stereo not drawn) [Ajuforrestine A fraction, 1,11b-dihydro-7,11-dihydroxy-3,4,8,11b-tetramethyl-phenanthro[3,2-b]furan-6(2H)-one]",,,,,,99.6,102,,98,109,n.e.

# Source: patent US5981574A, “Phenanthrofuran derivatives” (Phytera, Inc., priority 1998, dated 1999)
